Results reported in publication PMC6273746, “Molecular Mechanism of the Flavonoid Natural Product Dryocrassin ABBA against Staphylococcus aureus Sortase A” (Molecules, 2016).

Tests used:
Format in all cases: binding
[1] = molecular target: T1, sortase A (SrtA), WT-SrtA (Staphylococcus aureus, UniProt Q2FV99); assay: fluorescence quenching (KA); also FRET inhibition of purified SrtA, IC50 […]
T1 construct: SrtA△N59, recombinant, GST tag cleaved

[2] = molecular target: T2, sortase A (SrtA), V168A-SrtA (Staphylococcus aureus, UniProt Q2FV99, V168A); assay: fluorescence quenching (KA); reduced inhibition versus WT in FRET assay at […]
T2 construct: SrtA△N59, recombinant, GST tag cleaved

[3] = molecular target: T3, sortase A (SrtA), V166A-SrtA (Staphylococcus aureus, UniProt Q2FV99, V166A); assay: as above
T3 construct: SrtA△N59, recombinant, GST tag cleaved

## CCCC(=O)c1c(O)c(CC2=C(O)C(C)(C)C(=O)C(C(C)=O)=C2O)c(O)c(Cc2c(O)c(CC3=C(O)C(C)(C)C(=O)C(C(C)=O)=C3O)c(O)c(C(=O)CCC)c2O)c1O [ABBA, dryocrassin ABBA]
[1]
  Kd: 2.18 µM
[2]
  Kd: 2.79 µM
[3]
  Kd: 2.3 µM
